From ChEMBL document CHEMBL1150338, “Prediction and identification of drug interactions with the human ATP-binding cassette transporter multidrug-resistance associated protein 2 (MRP2; ABCC2)” (J Med Chem, 2008)
Structures can show the parent of a compound that is named as a salt.

These compounds were tested against MRP2 (ABCC2) (Homo sapiens, UniProt Q92887) (assay: in vitro). Conditions: probe estradiol-17-beta-glucuronide.
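Further: Inside-out membrane vesicles from Sf9 insect cells expressing human MRP2, measuring uptake of the estradiol glucuronide substrate, expressed as percent of untreated control.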
Description: Effect on human MRP2-mediated estradiol-17-beta-glucuronide transport in Sf9 cells inverted membrane vesicles relative to control

Sequence of MRP2 (ABCC2) (Q92887 whole entry): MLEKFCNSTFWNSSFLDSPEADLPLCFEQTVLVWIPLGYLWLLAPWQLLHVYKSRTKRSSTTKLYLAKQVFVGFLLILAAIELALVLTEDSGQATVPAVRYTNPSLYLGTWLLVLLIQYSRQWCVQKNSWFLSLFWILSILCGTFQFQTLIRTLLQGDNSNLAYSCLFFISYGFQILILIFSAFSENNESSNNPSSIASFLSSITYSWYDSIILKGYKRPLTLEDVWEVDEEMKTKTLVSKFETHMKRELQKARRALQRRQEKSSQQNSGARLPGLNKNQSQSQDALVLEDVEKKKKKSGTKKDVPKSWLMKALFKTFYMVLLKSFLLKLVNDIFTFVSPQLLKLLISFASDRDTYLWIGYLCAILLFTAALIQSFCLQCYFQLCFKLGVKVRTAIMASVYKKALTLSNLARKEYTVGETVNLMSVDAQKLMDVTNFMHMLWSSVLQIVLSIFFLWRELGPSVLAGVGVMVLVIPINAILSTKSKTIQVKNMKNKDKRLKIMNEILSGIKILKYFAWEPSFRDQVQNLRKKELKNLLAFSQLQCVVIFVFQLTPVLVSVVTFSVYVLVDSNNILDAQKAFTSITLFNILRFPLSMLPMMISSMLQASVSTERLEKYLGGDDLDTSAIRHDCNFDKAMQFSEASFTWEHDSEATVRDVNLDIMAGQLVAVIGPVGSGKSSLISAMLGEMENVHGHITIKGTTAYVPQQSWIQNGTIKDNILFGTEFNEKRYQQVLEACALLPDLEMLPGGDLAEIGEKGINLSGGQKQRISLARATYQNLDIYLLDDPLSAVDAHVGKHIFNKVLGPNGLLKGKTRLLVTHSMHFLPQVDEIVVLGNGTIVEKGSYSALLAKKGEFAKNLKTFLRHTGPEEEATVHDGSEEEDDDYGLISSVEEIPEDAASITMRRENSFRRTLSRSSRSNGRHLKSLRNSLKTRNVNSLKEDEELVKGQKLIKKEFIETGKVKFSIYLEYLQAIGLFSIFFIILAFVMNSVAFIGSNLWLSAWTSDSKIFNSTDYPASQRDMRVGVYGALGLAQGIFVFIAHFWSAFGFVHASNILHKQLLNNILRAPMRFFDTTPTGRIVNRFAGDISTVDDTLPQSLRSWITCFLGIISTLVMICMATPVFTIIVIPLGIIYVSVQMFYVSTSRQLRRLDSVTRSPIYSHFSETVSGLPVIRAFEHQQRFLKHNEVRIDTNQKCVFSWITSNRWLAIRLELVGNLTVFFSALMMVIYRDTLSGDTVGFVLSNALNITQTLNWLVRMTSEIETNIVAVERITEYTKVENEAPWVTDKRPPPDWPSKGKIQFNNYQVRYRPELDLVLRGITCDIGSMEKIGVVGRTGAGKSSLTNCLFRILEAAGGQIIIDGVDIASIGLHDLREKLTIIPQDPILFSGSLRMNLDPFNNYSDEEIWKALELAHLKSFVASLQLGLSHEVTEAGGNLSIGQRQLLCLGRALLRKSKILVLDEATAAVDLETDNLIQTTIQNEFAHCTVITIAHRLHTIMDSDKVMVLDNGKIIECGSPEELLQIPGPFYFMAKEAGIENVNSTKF

SMILES | activity
CCCC1O[C@@H]2C[C@H]3[C@@H]4CCC5=CC(=O)C=C[C@]5(C)[C@H]4[C@@H](O)C[C@]3(C)[C@]2(C(=O)CO)O1 (stereo partly specified) [BUDESONIDE] | 150%
CC(NC(C)(C)C)C(=O)c1cccc(Cl)c1 (stereo unspecified) [BUPROPION] | 106%
C[C@H](CS)C(=O)N1CCC[C@H]1C(=O)O [CAPTOPRIL] | 104%
NC(=O)N1c2ccccc2C=Cc2ccccc21 [CARBAMAZEPINE] | 86%
C[N+](C)(C)C[C@H](O)CC(=O)[O-] [CARNITINE] | 84%
CC1=C(C(=O)O)N2C(=O)[C@@H](NC(=O)[C@H](N)c3ccc(O)cc3)[C@H]2SC1 [CEFADROXIL] | 68%
Cn1nnnc1SCC1=C(C(=O)O)N2C(=O)[C@@H](NC(=O)[C@H](O)c3ccccc3)[C@H]2SC1 [CEFAMANDOLE] | 63%
Cc1ccc(-c2cc(C(F)(F)F)nn2-c2ccc(S(N)(=O)=O)cc2)cc1 [CELECOXIB] | 46%
COc1ccc2c(c[n+](C)c3c4cc5c(cc4ccc23)OCO5)c1OC [CHELERYTHRINE CHLORIDE] | 43%
C[C@H](CCC(=O)O)[C@H]1CC[C@H]2[C@@H]3[C@H](O)C[C@@H]4C[C@H](O)CC[C@]4(C)[C@H]3CC[C@]12C [CHENODIOL] | 101%
CN(C)CC/C=C1/c2ccccc2Sc2ccc(Cl)cc21 [CHLORPROTHIXENE] | 25%
C[C@H](CCC(=O)O)[C@H]1CC[C@H]2[C@@H]3[C@H](O)C[C@@H]4C[C@H](O)CC[C@]4(C)[C@H]3C[C@H](O)[C@]12C [CHOLIC ACID] | 112%
O=c1cc(-c2ccccc2)oc2cc(O)cc(O)c12 [CHRYSIN] | 110%
Clc1ccccc1C(c1ccccc1)(c1ccccc1)n1ccnc1 [CLOTRIMAZOLE] | 14%
COc1cc2c(c(OC)c1OC)-c1ccc(OC)c(=O)cc1[C@@H](NC(C)=O)CC2 [COLCHICINE] | 101%
CNCCCN1c2ccccc2CCc2ccccc21 [DESIPRAMINE] | 57%
COc1ccc2c(c1)[C@]13CCCC[C@@H]1[C@H](C2)N(C)CC3 [DEXTROMETHORPHAN] | 57%
O=C(O)Cc1ccccc1Nc1c(Cl)cccc1Cl [DICLOFENAC] | 198%
CC/C(=C(/CC)c1ccc(O)cc1)c1ccc(O)cc1 [DIETHYLSTILBESTROL] | 11%
C[C@H]1O[C@@H](O[C@H]2[C@@H](O)C[C@H](O[C@H]3[C@@H](O)C[C@H](O[C@H]4CC[C@@]5(C)[C@H](CC[C@@H]6[C@@H]5C[C@@H](O)[C@]5(C)[C@@H](C7=CC(=O)OC7)CC[C@]65O)C4)O[C@@H]3C)O[C@@H]2C)C[C@H](O)[C@@H]1O [DIGOXIN] | 99%
COc1ccc([C@@H]2Sc3ccccc3N(CCN(C)C)C(=O)[C@@H]2OC(C)=O)cc1 [DILTIAZEM] | 40%
OCCN(CCO)c1nc(N2CCCCC2)c2nc(N(CCO)CCO)nc(N3CCCCC3)c2n1 [DIPYRIDAMOLE] | 42%
CC(C)[C@@]1(NC(=O)[C@@H]2C=C3c4cccc5[nH]cc(c45)C[C@H]3N(C)C2)O[C@@]2(O)[C@@H]3CCCN3C(=O)[C@H](Cc3ccccc3)N2C1=O [ERGOCRISTINE] | 60%

SMILES | activity
C#Cc1cccc(Nc2ncnc3cc(OCCOC)c(OCCOC)cc23)c1 [ERLOTINIB] | 47%
CC[C@H]1OC(=O)[C@H](C)[C@@H](O[C@H]2C[C@@](C)(OC)[C@@H](O)[C@H](C)O2)[C@H](C)[C@@H](O[C@@H]2O[C@H](C)C[C@H](N(C)C)[C@H]2O)[C@](C)(O)C[C@@H](C)C(=O)[C@H](C)[C@@H](O)[C@]1(C)O [ERYTHROMYCIN] | 89%
C[C@]12CC[C@@H]3c4ccc(O)cc4CC[C@H]3[C@@H]1CC[C@@H]2O [ESTRADIOL] | 123%
C[C@]12CC[C@@H]3c4ccc(OS(=O)(=O)O)cc4CC[C@H]3[C@@H]1CCC2=O [ESTRONE SULFURIC ACID] | 300%
COc1cc([C@@H]2c3cc4c(cc3[C@@H](O[C@@H]3O[C@@H]5CO[C@@H](C)O[C@H]5[C@H](O)[C@H]3O)[C@H]3COC(=O)[C@H]23)OCO4)cc(OC)c1O [ETOPOSIDE] | 110%
CC1=C(CC(=O)O)c2cc(F)ccc2/C1=C\c1ccc(S(C)(=O)=O)cc1 [EXISULIND] | 113%
CCOC(=O)C1=C(C)NC(C)=C(C(=O)OC)C1c1cccc(Cl)c1Cl (stereo unspecified) [FELODIPINE] | 86%
CC(NCCC(c1ccccc1)c1ccccc1)c1ccccc1 (stereo unspecified) [FENDILINE] | 5%
CC(C)OC(=O)C(C)(C)Oc1ccc(C(=O)c2ccc(Cl)cc2)cc1 [FENOFIBRATE] | 46%
CC(C)(C(=O)O)c1ccc(C(O)CCCN2CCC(C(O)(c3ccccc3)c3ccccc3)CC2)cc1 (stereo unspecified) [FEXOFENADINE] | 97%
Cc1onc(-c2c(F)cccc2Cl)c1C(=O)N[C@@H]1C(=O)N2[C@@H]1SC(C)(C)[C@@H]2C(=O)O [FLOXACILLIN] | 73%
O=C1OC2(c3ccc(O)cc3Oc3cc(O)ccc32)c2ccccc21 [FLUORESCEIN] | 82%
CC(C(=O)O)c1ccc(-c2ccccc2)c(F)c1 (stereo unspecified) [FLURBIPROFEN] | 108%
CC(C)C(=O)Nc1ccc([N+](=O)[O-])c(C(F)(F)F)c1 [FLUTAMIDE] | 126%
NS(=O)(=O)c1cc(C(=O)O)c(NCc2ccco2)cc1Cl [FUROSEMIDE] | 118%
CC(=O)O[C@H]1C[C@@]2(C)[C@@H](C[C@@H](O)[C@H]3[C@@]4(C)CC[C@@H](O)[C@@H](C)[C@@H]4CC[C@@]32C)/C1=C(\CCC=C(C)C)C(=O)O [FUSIDIC ACID] | 72%
O=c1c(-c2ccc(O)cc2)coc2cc(O)cc(O)c12 [GENISTEIN] | 101%
Cc1ccc(S(=O)(=O)NC(=O)NN2CC3CCCC3C2)cc1 (stereo unspecified) [GLICLAZIDE] | 174%
CCC1=C(C)CN(C(=O)NCCc2ccc(S(=O)(=O)NC(=O)N[C@H]3CC[C@H](C)CC3)cc2)C1=O [GLIMEPIRIDE] | 142%
Cc1cnc(C(=O)NCCc2ccc(S(=O)(=O)NC(=O)NC3CCCCC3)cc2)cn1 [GLIPIZIDE] | 81%
COc1ccc(Cl)cc1C(=O)NCCc1ccc(S(=O)(=O)NC(=O)NC2CCCCC2)cc1 [GLYBURIDE] | 304%
CC1(C)[C@@H](O[C@H]2O[C@H](C(=O)O)[C@@H](O)[C@H](O)[C@H]2O[C@@H]2O[C@H](C(=O)O)[C@@H](O)[C@H](O)[C@H]2O)CC[C@]2(C)[C@H]3C(=O)C=C4[C@@H]5C[C@@](C)(C(=O)O)CC[C@]5(C)CC[C@@]4(C)[C@]3(C)CC[C@@H]12 [GLYCYRRHIZIN] | 5%
O=C(CCCN1CCC(O)(c2ccc(Cl)cc2)CC1)c1ccc(F)cc1 [HALOPERIDOL] | 106%

SMILES | activity
NS(=O)(=O)c1cc2c(cc1Cl)NCNS2(=O)=O [HYDROCHLOROTHIAZIDE] | 94%
C[C@]12CCC(=O)C=C1CC[C@@H]1[C@@H]2[C@@H](O)C[C@@]2(C)[C@H]1CC[C@]2(O)C(=O)CO [HYDROCORTISONE] | 124%
CC(C)Cc1ccc(C(C)C(=O)O)cc1 (stereo unspecified) [IBUPROFEN] | 130%
Cc1ccc(NC(=O)c2ccc(CN3CCN(C)CC3)cc2)cc1Nc1nccc(-c2cccnc2)n1 [IMATINIB MESYLATE] | 74%
CC1(C)C(/C=C/C=C/C=C/C=C2\N(CCCCS(=O)(=O)O)c3ccc4ccccc4c3C2(C)C)=[N+](CCCCS(=O)(=O)[O-])c2ccc3ccccc3c21 [INDOCYANINE GREEN] | 5%
COc1ccc2c(c1)c(CC(=O)O)c(C)n2C(=O)c1ccc(Cl)cc1 [INDOMETHACIN] | 308%
CCc1c2c(nc3ccc(OC(=O)N4CCC(N5CCCCC5)CC4)cc13)-c1cc3c(c(=O)n1C2)COC(=O)[C@]3(O)CC [IRINOTECAN] | 101%
NNC(=O)c1ccncc1 [ISONIAZID] | 96%
COC(=O)C1=C(C)NC(C)=C(C(=O)OC(C)C)C1c1cccc2nonc12 (stereo unspecified) [ISRADIPINE] | 46%
CC(=O)N1CCN(c2ccc(OC[C@H]3CO[C@](Cn4ccnc4)(c4ccc(Cl)cc4Cl)O3)cc2)CC1 [KETOCONAZOLE] | 76%
CC(C(=O)O)c1cccc(C(=O)c2ccccc2)c1 (stereo unspecified) [KETOPROFEN] | 120%
Cc1c(OCC(F)(F)F)ccnc1C[S+]([O-])c1nc2ccccc2[nH]1 (stereo unspecified) [LANSOPRAZOLE] | 34%
Nc1nc2c(c(=O)[nH]1)N(C=O)C(CNc1ccc(C(=O)N[C@@H](CCC(=O)O)C(=O)O)cc1)CN2 (stereo partly specified) [LEUCOVORIN] | 103%
NCCCC[C@H](N[C@@H](CCc1ccccc1)C(=O)O)C(=O)N1CCC[C@H]1C(=O)O [LISINOPRIL ANHYDROUS] | 43%
CN(C)C(=O)C(CCN1CCC(O)(c2ccc(Cl)cc2)CC1)(c1ccccc1)c1ccccc1 [LOPERAMIDE] | 46%
CCOC(=O)N1CCC(=C2c3ccc(Cl)cc3CCc3cccnc32)CC1 [LORATADINE] | 6%
Nc1ccc(O)c(C(=O)O)c1 [MESALAMINE] | 109%
COCCc1ccc(OCC(O)CNC(C)C)cc1 (stereo unspecified) [METOPROLOL] | 72%
CC#C[C@]1(O)CC[C@H]2[C@@H]3CCC4=CC(=O)CCC4=C3[C@@H](c3ccc(N(C)C)cc3)C[C@@]21C [MIFEPRISTONE] | 134%
O=C1c2c(O)ccc(O)c2C(=O)c2c(NCCNCCO)ccc(NCCNCCO)c21 [MITOXANTRONE] | 175%
O=c1c(O)c(-c2ccc(O)cc2O)oc2cc(O)cc(O)c12 [MORIN] | 50%

Same assay, conditions: sf9

SMILES | activity
CCN(CC)CCCC(C)Nc1ccnc2cc(Cl)ccc12 (stereo unspecified) [CHLOROQUINE] | 102%
CN(C)CCCN1c2ccccc2Sc2ccc(Cl)cc21 [CHLORPROMAZINE] | 58%
CN/C(=N/CCSCc1nc[nH]c1C)NC#N [CIMETIDINE] | 91%
COc1cccc2c1C(=O)c1c(O)c3c(c(O)c1C2=O)C[C@@](O)(C(=O)CO)C[C@@H]3O[C@H]1C[C@H](N)[C@H](O)[C@H](C)O1 [DOXORUBICIN] | 87%
COc1cc2ncnc(Nc3ccc(F)c(Cl)c3)c2cc1OCCCN1CCOCC1 [GEFITINIB] | 74%
N[C@@H](CCC(=O)N[C@@H](CS)C(=O)NCC(=O)O)C(=O)O [GLUTATHIONE] | 116%
Cc1cccc(C)c1OCC(=O)N[C@@H](Cc1ccccc1)[C@@H](O)C[C@H](Cc1ccccc1)NC(=O)[C@H](C(C)C)N1CCCNC1=O [LOPINAVIR] | 33%
CNCCCC12CCC(c3ccccc31)c1ccccc12 [MAPROTILINE] | 56%
CN(Cc1cnc2nc(N)nc(N)c2n1)c1ccc(C(=O)N[C@@H](CCC(=O)O)C(=O)O)cc1 [METHOTREXATE] | 130%
